# Data as given in patent US3984501A, “Phenyl- and benzylphosphonate esters” (priority 1975, dated 1976).
# Like-named read-outs stand apart in the source and are kept apart here.
# Assays:
# [1] = tested on: PGE2-induced contraction of isolated guinea pig ileum (GPI) and isolated rat fundus (RF); test: Inhibition of PGE2-induced contraction of isolated smooth muscle preparations (anti-prostaglandin activity); format: cell-based; conditions: for IC50: isolated GPI or RF (tissue not specified per value), incubation 15 min initial exposure, 5 min each successive increment, read-out: I.C.50 (vs PGE2)
# Method: (§1) The following compounds were tested for their effects on isolated smooth muscle preparations ##SPC18##
# (§2) the techniques for setting up the isolated guinea pig ileum (GPI) and isolated rat fundus (RF) were those described in Pharmacological Experiments on Isolated Preparations (E. S. Livingston Ltd., Publishers). The tissues were bathed in Krebs solution and isotonic contractions were recorded. To elicit a maximal contraction after the initial equilibration period, the tissue (GPI or RF) was exposed to 20 ng/ml acetylcholine (ACh). After a dose-dependent pattern was established with ACh, the tissue was exposed to 20 ng/ml of PGE2 in order to elicit a maximal prostaglandin-induced contraction. Test doses of PGE2 and ACh which cause 50% of the maximal contractions were determined.
# (§3) To test a compound for anti-prostaglandin activity, the tissue was incubated with a compound for a fixed period of time (15 minutes for the initial exposure to the test drug and 5 minutes for each successive increment in concentration) followed by the test dose of PGE2 or ACh to elicit a tissue contraction. Inhibition of contraction was measured as percent reduction in the magnitude of the response to the test dose of PGE2. The concentration of drug which inhibited the test concentration of PGE2 by 50% (I.C.50) was determined from the dose-response curve obtained by plotting concentration versus percent inhibition. Test contractions with ACh determined whether any decrease in contraction amplitude was specific for prostaglandin-induced contractions or a general deterioration of tissue function. The term selectivitiy refers to % inhibition of ACh-induced contractions at compound dosages which inhibi the PGE2 -induced contraction by the indicated percentage.
# [2] = tested on: ACh-induced contractions of isolated guinea pig ileum (GPI) and isolated rat fundus (RF); test: Inhibition of ACh-induced contraction of isolated smooth muscle (selectivity); format: cell-based; conditions: for Selectivity: % inhibition of ACh-induced contractions at dosages which inhibit the PGE2-induced contraction by 50%: at 50% inhibition of PGE2-induced contraction; for Selectivity: % inhibition of ACh-induced contractions at dosages which inhibit the PGE2-induced contraction by 70%: at 70% inhibition of PGE2-induced contraction; for Selectivity: % inhibition of ACh-induced contractions at dosages which inhibit the PGE2-induced contraction by 90%: at 90% inhibition of PGE2-induced contraction
# Method: as §1, §2, §3
# [3] = Systemic toxicity in male Swiss Webster mice; format: in vivo, mouse; conditions: mouse, in vivo, in saline, 24 hours, read-out: L.D.50 at 24 hours
# Method: (§4) Compounds 1-3 were tested for systemic toxicity. Male Swiss Webster mice were injected (i.p. or p.o.) with the test compound dissolved in saline (0.2 ml). The mice were examined every half hour for the first two hours after treatment and every hour for the following four hours. Thereafter the mice were examined irregularly, with a final examination at the end of the 48-hour test.
# [4] = Topical toxicity in hairless mice; conditions: mouse, in vivo, topical or ocular, topically, 0.1 ml of 90% PEG, read-out: L.D.50 at 24 hours
# Method: Topical toxicity was determined at a single dosage level on two hairless mice. The animals were restrained with neck collars. The test compound was applied in a total volume of 0.1 ml of 90% PEG (10% H2 O) spread uniformly over the back by means of a Q-tip.
# [5] = tested on: male Swiss Webster mice; test: Systemic toxicity in male Swiss Webster mice; format: in vivo, mouse; conditions: from Table 2, vs compound 1
# Method: as §4
Structure (SMILES),IC50 ([1]; Cavia porcellus) [nM],Selectivity: % inhibition of ACh-induced contractions at dosages which inhibit the PGE2-induced contraction by 50% [2] [%],Selectivity: % inhibition of ACh-induced contractions at dosages which inhibit the PGE2-induced contraction by 70% [2] [%],Selectivity: % inhibition of ACh-induced contractions at dosages which inhibit the PGE2-induced contraction by 90% [2],LD50 at 24 h ([3]; ip) [mg/kg],LD50 at 24 h ([3]; po) [mg/kg],LD50 at 24 h [4] [mg/kg],IC50 [1] [nM],toxicity relative to compound 1 [5],"times more potent than compound 1 ([1]; potency ratio vs compound 1, from Table 1)","times more potent than compound 2 ([1]; potency ratio vs compound 2, from Table 1)"
"O=C(c1ccc(OP(=O)(O)Oc2ccccc2)cc1)C(Cc1ccccc1)Cc1ccc(Cl)cc1 (centres unmarked) [Compound 1, reference compound]",47,0,0,0%,194,235,> 4300,,,,
O=C(c1ccc(OP(=O)(O)c2ccccc2)cc1)C(Cc1ccccc1)Cc1ccc(Cl)cc1 (centres unmarked) [Compound 2],,0,0,30%,361,,,200,considerably less toxic than compound 1,,
O=C(c1ccc(OP(=O)(O)Cc2ccccc2)cc1)C(Cc1ccccc1)Cc1ccc(Cl)cc1 (centres unmarked) [Compound 3],,0,0,10-15%,408,715,> 4350,6.1,considerably less toxic than compound 1,about 8 times,approximately 30 times
